According to ChEMBL document CHEMBL4052744, “Diverse heterocyclic scaffolds as dCTP pyrophosphatase 1 inhibitors. Part 1: Triazoles, triazolopyrimidines, triazinoindoles, quinoline hydrazones and arylpiperazines” (Bioorg Med Chem Lett, 2017):

target: T1, dCTP pyrophosphatase 1 (Homo sapiens, UniProt Q9H773); assay: Inhibition of human dCTPase 1
T1 sequence (Q9H773 whole entry): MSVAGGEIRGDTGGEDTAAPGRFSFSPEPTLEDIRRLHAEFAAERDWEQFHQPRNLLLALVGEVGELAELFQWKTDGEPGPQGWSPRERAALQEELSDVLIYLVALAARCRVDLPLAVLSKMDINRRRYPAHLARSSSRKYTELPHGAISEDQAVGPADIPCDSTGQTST

Structure (SMILES)	IC50 [µM]
CCn1c2ccccc2c2nnc(SCCN3CCCCC3)nc21	0.94
CCOc1ccc(C(=O)N2CCN(c3cnn(-c4ccccc4)c(=O)c3Cl)CC2)cc1	1.2
COc1ccccc1C(=O)N1CCN(c2cnn(-c3ccccc3)c(=O)c2Cl)CC1	0.66
O=C(c1ccco1)N1CCN(c2nc3ccccc3n3cnnc23)CC1	0.98
Cn1c2ccccc2c2nnc(SCCN3CCCCC3)nc21	1.91
CCNc1cc(N2CCN(C(=O)c3ccc(CC)cc3)CC2)ccc1[N+](=O)[O-]	0.91
O=C(c1ccccc1Cl)N1CCN(c2ccc([N+](=O)[O-])c(NC3CC3)c2)CC1	1.1
CCNc1cc(N2CCN(C(=O)c3ccc(OC)cc3)CC2)ccc1[N+](=O)[O-]	1.5
CCc1c(C)nc(N2CCN(c3ccc(OC)cc3)CC2)nc1O	1.1
CCc1c(C)nc(N2CCN(c3cccc(OC)c3)CC2)nc1O	1.4
CCNc1cc(N2CCN(C(=O)c3ccccc3C)CC2)ccc1[N+](=O)[O-]	0.81
COc1ccc2c(c1)c1nnc(SCCN3CCOCC3)nc1n2C	0.55
CS(=O)(=O)N1CCN(c2cnn(-c3ccccc3)c(=O)c2Cl)CC1	3.2
CC(C)(C)c1cc(=O)[nH]c(N2CCN(Cc3ccc4c(c3)OCO4)CC2)n1	1.1
